Results on 5 compounds are retold here after patent publication US20130324615A1, “BIODEGREDATION SUPPRESSION SOLUTION FOR FORENSIC SAMPLES” (Indiana University Research and Technology Corporation, priority 2011, published 2013).

Holding throughout (format): cell-based
The subject of test [1] is bacteria grown from soil sample extract. The test is described as follows: Anti-microbial agent screening: soil-extract broth cultures treated with agent, then sub-cultured. The note with it: confirmation on TSA plates. The method, then:
In anti-microbial agent screening studies, a soil sample was extracted with a 0.9% saline solution of sodium chloride (NaCl) and water (H2O) and a sample loop was used to transfer approximately 10 μL of extract to a test tube containing sterile Tryptic Soy Broth (TSB). […] The broth samples were then treated with anti-microbial agents at a known concentration. The treated broth samples were then sub-cultured in another sterile TSB, minimal media (MM) or spread on sterile Tryptic Soy Agar (TSA) plates. MM is a nutrient deficient growth medium where citric acid is the only carbon source and which is selective against many species of bacteria. Bacterial growth was confirmed by visible inspection of the secondary TSB, MM or TSA plate. The broth/plate samples were then evaluated for how long they remained free of bacterial growth. […] The column labeled Bacterial Confirmatory Analysis provides the subculture media used to confirm bacterial growth.

Another test concerns bacteria of soil sample. The test is described as follows: Culturing study: soil sample directly treated with anti-microbial agent, extract inoculated into sterile TSB. The note with it: concentration not given. The method, then: Additional culturing studies were carried out where a soil sample was directly treated with an anti-microbial agent. The exposure time of the soil sample to the anti-microbial was either 60 seconds or 24 hours. The extract was then sampled and used to inoculate a sterile TSB. The amount of time for bacterial growth to become visible was then noted.

Test [2] deals with bacteria from saline extract of a soil sample. The test is described as follows: Growth curve by UV-Vis absorbance at 600 nm of TSB inoculated with saline soil extract. The note with it: TSB treated with 1.8% triclosan in 0.1 M NaOH or with bleach; room temperature, up to 80 days. How it is done:
FIG. 1 describes a growth curve constructed using UV-vis analysis of cultures taken from soil exposed to water, 0.1 M sodium hydroxide (NaOH), 1.81% triclosan and bleach.
A final culturing study was conducted where a set of culture tubes containing sterile TSB were inoculated with a saline extract of a soil sample. One set of culture tubes contained only sterile TSB, a second set contained sterile TSB treated with 0.1 M NaOH, a third set contained sterile TSB treated with 1.8% triclosan in 0.1 M NaOH and a fourth set contained sterile TSB treated with bleach. The culture tubes were allowed to stand at room temperature for periods of up to 80 days. Growth was then monitored three times daily for up to 4 days by a single beam diode array UV-Vis Spectrophotometer in the 400 nm to 800 nm range. The absorbance of the samples at 600 nm was monitored over the course of the study.

`CC(C)(C)CC(C)(C)c1ccc(OCCOCC[N+](C)(C)Cc2ccccc2)cc1` [Benzethonium chloride in water, Benzethonium chloride]: the “Effective Period (time sub-culture remained free of bacterial growth)” value in test [1] (agent at 1%) is on record as 0 days.
On to `[H]/N=C(\N/C(=N/[H])NCCCCCCNC(=N)NC(=N)Nc1ccc(Cl)cc1)Nc1ccc(Cl)cc1` [Chlorhexidine in water, Chlorhexidine], for which the “Effective Period (time sub-culture remained free of bacterial growth)” value in test [1] (agent at 14%) was 0 days. For the same compound, the results for the “Effective period (time for bacterial growth to become visible, cloudy)” value in the test on bacteria of soil sample (soil exposure time 60 s) and in the test with bacteria of soil sample (soil exposure time 24 hrs) were “Cloudy after 8 days” and “Still clean after 36 days”, respectively.
For the compound `O=S(=O)([O-])[O-].[Cu+2]` [Copper Sulfate in water, Copper Sulfate], the “Effective Period (time sub-culture remained free of bacterial growth)” value in test [1] (agent at 5%) is recorded as 0 days.
Turning to `Oc1cc(Cl)ccc1Oc1ccc(Cl)cc1Cl` [triclosan, 2,4,4′-trichloro-2′-hydroxydiphenyl ether], in test [2], the “Bacterial growth by sample absorbance at 600 nm (FIG. 1)” value is “prevent bacterial growth”.
With “Benzalkonium chloride [Benzalkonium chloride in water]”, the “Effective Period (time sub-culture remained free of bacterial growth)” value in test [1] (agent at 1%) amounted to 0 days.
